The structures appear in SMILES notation.

The source of these data is patent US12576107B2, “Methods of treating chronic inflammatory diseases” (METIMEDI PHARMACEUTICALS CO., LTD., priority 2018, dated 2026).

One assay has as its system lactate dehydrogenase B. As to the kind of experiment: Human fibroblast in vitro experiment, Western blot in CCD-18Co cells. Particulars: 2.5 mM; CCD-18Co cells (human colon fibroblast); hypoxia. It is filed as cell-based. How it is done: Human Colon Fibroblast cell line, CCD-18-Co, was purchased from American Type Culture Collection (Manassas, VA, USA). The CCD-18Co cells were maintained in DMEM containing 10% fetal bovine serum (Life Technologies, Gaithersburg, MD, USA), 100 IU/ml penicillin, and 100 μg/ml streptomycin (Welgene, Daegu, South Korea).
(§1) To prepare whole cell lysate, cells were lysed with lysis buffer (1% NP-40, 0.25% sodium deoxycholate, 150 mM NaCl, 1 mM EDTA, 1% Triton X-100, 50 mM Tris-HCl (pH 7.4), 10% Glycerol) with protease inhibitor cocktail (Roche, Basel, Switzerland) and phosphatase inhibitors (NA3VO4 1 mM, NaF 100 mM). Then, protein concentration was measured using the Bicinchoninic acid (BCA) assay kit (Thermo Scientific, Waltham, MA). Whole cell or nuclear lysates were transferred onto polyvinylidene fluoride membranes (Merck Millipore, Billerica, MA, USA). After blocking in 5% non-fat milk (Bio-Rad, Hercules, CA, USA) for 1 h, the membranes were incubated overnight at 4° C. with primary antibody diluted in TBST containing 100 mM Tris-HCl (pH 7.5), 1.5 M NaCl, and 0.5% Tween-20 obtained from Sigma-Aldrich, to which 5% BSA and 0.1% sodium azide (Sigma-Aldrich) had been added. Specific primary antibodies to HIF-1α (1:1000), HIF-2α (1:1000), LDH-A (1:1000), LDH-B (1:1000), TLR-4 (1:1000), NF-κB (1:1000), VEGF (1:1000), α-tubulin (1:1000), Actin (1:1000), and GAPDH (1:5000). […]
On the technique in general: A western blot detects proteins with antibodies after separation by electrophoresis.

In assay [1] the test system is hypoxia-mediated factors. As to the kind of experiment: Liver CID in vitro experiment, Western blot in HepG2 cells. It is filed as cell-based, Human. Particulars: 2.5 mM, HepG2 cells (liver epithelium). On the procedure:
(§2) Human Hepatocellular carcinoma cell line, HepG2, was purchased from American Type Culture Collection (Manassas, VA, USA). The HepG2 cells were maintained in RPMI 1640 containing 10% fetal bovine serum (Life Technologies, Gaithersburg, MD, USA), 100 IU/ml penicillin, and 100 μg/ml streptomycin (Welgene, Daegu, South Korea).
as §1

In a further assay the test system is TLR-4. As to the kind of experiment: Western blot of TLR-4 in HepG2 cells. In kind it is cell-based, Human. The note with it: 2.5 mM; HepG2 cells (liver epithelium); hypoxia. On the procedure:
as §2, §1

Assay [2] relates to hypoxia-mediated factors. As to the kind of experiment: Eye CID in vitro experiment, Western blot in ARPE-19 cells. In kind it is cell-based, Human. The note with it: 2.5 mM; ARPE-19 cells (retinal pigment epithelium); normoxia and hypoxia. How it is done:
Human retinal pigment epithelium cell line, ARPE-19, was purchased from American Type Culture Collection (Manassas, VA, USA). The ARPE-19 cells were maintained in RPMI1640 containing 10% fetal bovine serum (Life Technologies, Gaithersburg, MD, USA), 100 IU/ml penicillin, and 100 μg/ml streptomycin (Welgene, Daegu, South Korea).
as §1

The test system of assay [3] is LPS-damaged brain of rats. The assay can be described thus: Alzheimer and stroke model, intracranial injection of LPS. In kind it is in vivo, Sprague-Dawley (SD) rats. Particulars: 2 mg/kg daily subcutaneous 21 days. On the procedure:
Animals. […] Eight-week old male Sprague-Dawley (SD) rats were obtained from Samtako Co. (Osan, Gyeonggi-do, Republic of Korea) and bred under specific-pathogen-free (SPF) conditions. All animals were maintained in a 12-hour light/dark cycle at 22-25° C. with free access to food and water.
Dissolve 1 mg of LPS powder in 1 ml of saline. Keep the tubes on ice if LPS is going to be used fresh. For long storage, screw cap vials are preferred. The aliquots were stored at −20° C. Calcium lactate was purchased from Sigma Aldrich (St. Louis, MO, USA).
Intracranial injection of LPS. The animals were placed in a small acrylic cage that was coupled with an anesthesia machine that allowed them to breathe freely under gaseous anesthesia (2% isoflurane, Spartanburg, SC, USA). […] The animal fur of head was shaved with an electric clipper, and the skin was swabbed with iodine. LPS was kept it on ice before use. All the surgical materials disinfected with 70% ethanol. Hamilton syringe barrel inner space was cleaned with distilled water and 70% ethanol. The Hamilton syringe was placed in the syringe holder. The animal in the stereotaxic apparatus was placed on horizontal position. A midline incision (about 1 cm) on the skin of head was made with the scalpel. The needle of Hamilton syringe was placed on the bregma. Read the three coordinates (AP: −3.6, LM: 2.0, and DV: −3.8) on the manipulator (in mm) and write them down; this was used for starting point. Slowly, set the DV coordinate of the injection point; this inserts the needle tip into the brain until the injection point. The LPS solution (2 μl) was released at an approximate flow rate of 0.5 μl/min. After the injection, the needle was removed very slowly. The wound area was closed by suturing, and then disinfectant was applied. The rat was marked for further identification.
Immunohistochemistry. Brain tissue was sectioned at 5 μm on cryostat and stained for histological examination. Microscopic images were obtained at 200× magnification. […]

On to `CC(O)C(=O)[O-].CC(O)C(=O)[O-].[Ca+2]` (stereo not shown) [calcium lactate], for which the “lactate dehydrogenase B, Western blot” value in the assay on lactate dehydrogenase B was “increased”. In addition, the “hypoxia-mediated factors, Western blot” value in the assay on hypoxia-mediated factors [1] is recorded as “changed”. In the assay on TLR-4, the “inflammatory factor (TLR-4), Western blot” value is listed as “decreased”. For the same molecule, the “hypoxia-mediated factors, Western blot” value in the assay on hypoxia-mediated factors [2] is reported as “decreased”. In assay [3], the damaged brain tissue entry is given as “Recovery”; the “inflammatory reaction, which exacerbates Alzheimer's and stroke” value is “greatly reduced”; the “microglia infiltration (Iba-1) in brain” value is given as “reduction”.
